# Reference: PubChem BioAssay AID1259407 (Chemical Carcinogenesis Research Information System (CCRIS), 2018)
# Active and inactive are the calls of the source. The rule behind the calls is not given here.
# Test system: CCRIS mutagenicity, Ames/micronucleus/aberration tests
# Test: CCRIS mutagenicity studies
# [1] = Test System: AMES SALMONELLA TYPHIMURIUM, Strain/Indicator: TA98, Metabolic Activation: NONE, Method: PREINCUBATION
# [2] = Test System: AMES SALMONELLA TYPHIMURIUM, Strain/Indicator: TA98, Metabolic Activation: NONE, Method: STANDARD PLATE
# [3] = Test System: AMES SALMONELLA TYPHIMURIUM, Strain/Indicator: TA98, Metabolic Activation: RAT, LIVER, S-9, AROCLOR 1254, Method: STANDARD PLATE
# [4] = Test System: AMES SALMONELLA TYPHIMURIUM, Strain/Indicator: TA100, Metabolic Activation: NONE, Method: STANDARD PLATE
# [5] = Test System: AMES SALMONELLA TYPHIMURIUM, Strain/Indicator: TA100, Metabolic Activation: RAT, LIVER, S-9, AROCLOR 1254, Method: STANDARD PLATE
# [6] = Test System: AMES SALMONELLA TYPHIMURIUM, Strain/Indicator: TA1535, Metabolic Activation: NONE, Method: STANDARD PLATE
# [7] = Test System: AMES SALMONELLA TYPHIMURIUM, Strain/Indicator: TA1537, Metabolic Activation: NONE, Method: STANDARD PLATE
# [8] = Test System: AMES SALMONELLA TYPHIMURIUM, Strain/Indicator: TA1538, Metabolic Activation: NONE, Method: STANDARD PLATE
smiles,measurement,setting,value
OC(O)C(Cl)(Cl)Cl,mutagenic call,"End Point: IN VITRO MICRONUCLEUS, Test System: HAMSTER V79 CELLS, Metabolic Activation: NONE",active; positive
same,mutagenic call,"End Point: IN VIVO MICRONUCLEUS, Test System: BLOOD LYMPHOCYTES, Species: HUMAN, Strain/Sex: INFANTS/MALE, FEMALE, Route: ORAL",active; positive
same,mutagenic call,"Test System: AMES SALMONELLA TYPHIMURIUM, Strain/Indicator: TA98, Metabolic Activation: HAMSTER LIVER S-9 (10%), AROCLOR 1254, Method: PREINCUBATION",inactive; negative
same,mutagenic call,[1],inactive; negative
same,mutagenic call,[2],inactive; negative
same,mutagenic call,"Test System: AMES SALMONELLA TYPHIMURIUM, Strain/Indicator: TA98, Metabolic Activation: RAT LIVER S-9 (10%), AROCLOR 1254, Method: PREINCUBATION",inactive; negative
same,mutagenic call,[3],inactive; negative
same,mutagenic call,"Test System: AMES SALMONELLA TYPHIMURIUM, Strain/Indicator: TA98, Metabolic Activation: RAT, LIVER, S-9, PHENOBARBITAL AND 5,6-BENZOFLAVONE, Method: PREINCUBATION",inactive; negative
same,mutagenic call,"Test System: AMES SALMONELLA TYPHIMURIUM, Strain/Indicator: TA100, Metabolic Activation: HAMSTER LIVER S-9 (10%), AROCLOR 1254, Method: PREINCUBATION",active; positive
same,mutagenic call,"Test System: AMES SALMONELLA TYPHIMURIUM, Strain/Indicator: TA100, Metabolic Activation: NONE, Method: FLUCTUATION TEST",inactive; negative
same,mutagenic call,[4],inactive; negative
same,mutagenic call,"Test System: AMES SALMONELLA TYPHIMURIUM, Strain/Indicator: TA100, Metabolic Activation: RAT LIVER S-9 (10%), AROCLOR 1254, Method: PREINCUBATION",active; positive
same,mutagenic call,"Test System: AMES SALMONELLA TYPHIMURIUM, Strain/Indicator: TA100, Metabolic Activation: RAT, LIVER, S-9, AROCLOR 1254, Method: FLUCTUATION TEST",active; positive
same,mutagenic call,[5],inactive; negative
same,mutagenic call,"Test System: AMES SALMONELLA TYPHIMURIUM, Strain/Indicator: TA100, Metabolic Activation: RAT, LIVER, S-9, PHENOBARBITAL AND 5,6-BENZOFLAVONE, Method: PREINCUBATION",inactive; negative
same,mutagenic call,"Test System: AMES SALMONELLA TYPHIMURIUM, Strain/Indicator: TA1535, Metabolic Activation: HAMSTER LIVER S-9 (10%), AROCLOR 1254, Method: PREINCUBATION",inactive; negative
same,mutagenic call,"Test System: AMES SALMONELLA TYPHIMURIUM, Strain/Indicator: TA1535, Metabolic Activation: NONE, Method: PREINCUBATION",inactive; negative
same,mutagenic call,[6],inactive; negative
same,mutagenic call,"Test System: AMES SALMONELLA TYPHIMURIUM, Strain/Indicator: TA1535, Metabolic Activation: RAT LIVER S-9 (10%), AROCLOR 1254, Method: PREINCUBATION",inactive; negative
same,mutagenic call,"Test System: AMES SALMONELLA TYPHIMURIUM, Strain/Indicator: TA1535, Metabolic Activation: RAT, LIVER, S-9, AROCLOR 1254, Method: STANDARD PLATE",inactive; negative
same,mutagenic call,"Test System: AMES SALMONELLA TYPHIMURIUM, Strain/Indicator: TA1537, Metabolic Activation: HAMSTER LIVER S-9 (10%), AROCLOR 1254, Method: PREINCUBATION",inactive; negative
same,mutagenic call,"Test System: AMES SALMONELLA TYPHIMURIUM, Strain/Indicator: TA1537, Metabolic Activation: NONE, Method: PREINCUBATION",inactive; negative
same,mutagenic call,[7],inactive; negative
same,mutagenic call,"Test System: AMES SALMONELLA TYPHIMURIUM, Strain/Indicator: TA1537, Metabolic Activation: RAT LIVER S-9 (10%), AROCLOR 1254, Method: PREINCUBATION",inactive; negative
same,mutagenic call,"Test System: AMES SALMONELLA TYPHIMURIUM, Strain/Indicator: TA1537, Metabolic Activation: RAT, LIVER, S-9, AROCLOR 1254, Method: STANDARD PLATE",inactive; negative
same,mutagenic call,[8],inactive; negative
same,mutagenic call,"Test System: AMES SALMONELLA TYPHIMURIUM, Strain/Indicator: TA1538, Metabolic Activation: RAT, LIVER, S-9, AROCLOR 1254, Method: STANDARD PLATE",inactive; negative
same,mutagenic call,"Test System: MOUSE LYMPHOMA, Strain/Indicator: L5178Y (TK+/TK- -3.7.2C), Metabolic Activation: NONE",active; positive
O=CN(O)c1ccc(F)cc1,mutagenic call,[2],inactive; negative
same,mutagenic call,[3],active; positive
same,mutagenic call,[4],inactive; negative
same,mutagenic call,[5],active; positive
Cc1cc2c(nc(N)n2C)c2nccnc12,mutagenic call,[3],active; positive
O=C1c2ccc([N+](=O)[O-])cc2C(=O)N1CCl,mutagenic call,[1],active; positive
same,mutagenic call,"Test System: AMES SALMONELLA TYPHIMURIUM, Strain/Indicator: TA98, Metabolic Activation: RAT, LIVER, S-9, PCB, Method: PREINCUBATION",active; positive
same,mutagenic call,"Test System: AMES SALMONELLA TYPHIMURIUM, Strain/Indicator: TA100, Metabolic Activation: NONE, Method: PREINCUBATION",active; positive
same,mutagenic call,"Test System: AMES SALMONELLA TYPHIMURIUM, Strain/Indicator: TA100, Metabolic Activation: RAT, LIVER, S-9, PCB, Method: PREINCUBATION",active; positive
C1CSCCO1,mutagenic call,[2],inactive; negative
same,mutagenic call,"Test System: AMES SALMONELLA TYPHIMURIUM, Strain/Indicator: TA98, Metabolic Activation: S-9, Method: STANDARD PLATE",inactive; negative
same,mutagenic call,[4],inactive; negative
same,mutagenic call,"Test System: AMES SALMONELLA TYPHIMURIUM, Strain/Indicator: TA100, Metabolic Activation: S-9, Method: STANDARD PLATE",inactive; negative
same,mutagenic call,[6],inactive; negative
same,mutagenic call,"Test System: AMES SALMONELLA TYPHIMURIUM, Strain/Indicator: TA1535, Metabolic Activation: S-9, Method: STANDARD PLATE",inactive; negative
same,mutagenic call,[7],inactive; negative
same,mutagenic call,"Test System: AMES SALMONELLA TYPHIMURIUM, Strain/Indicator: TA1537, Metabolic Activation: S-9, Method: STANDARD PLATE",inactive; negative
same,mutagenic call,[8],inactive; negative
same,mutagenic call,"Test System: AMES SALMONELLA TYPHIMURIUM, Strain/Indicator: TA1538, Metabolic Activation: S-9, Method: STANDARD PLATE",inactive; negative
